These results are taken from patent US20240287097A1, “COMPOUNDS AND METHODS FOR MODULATING SPLICING” (REMIX THERAPEUTICS INC., priority 2020, published 2024).

What all share (format): cell-based
In one experiment the test system is SMN2 CJ mRNA transcript. In words: Gene panel canonical junction qPCR assay, SMN2. The conditions noted are these: 50% response in CJ decrease, read-out: SMN2 IC50 (decrease in CJ mRNA levels). As for the experimental part: (§1) Compounds described herein were used to modulate RNA transcript abundance in cells. The expression of a target mRNA was measured by detecting the formation of an exon-exon junction in the canonical transcript (CJ). A compound mediated exon-inclusion event was detected by observing an increase in formation of a new junction with an alternative exon (AJ). Real-time qPCR assays were used to detect these splicing switches and interrogate the potency of various compounds towards different target genes. A high-throughput real time quantitative PCR (RT-qPCR) assay was developed to measure these two isoforms of the mRNA (CJ and AJ) for an exemplary gene, HTT, together with a control housekeeping gene, GAPDH or GUSB or PPIA, used for normalization. Briefly, the A673 or K562 cell line was treated with various compounds described herein (e.g., compounds of Formula (I)). After treatment, the levels of the HTT mRNA targets were determined from each sample of cell lysate by cDNA synthesis followed by qPCR.
(§2) The A673 cell line was cultured in DMEM with 10% FBS. Cells were diluted with full growth media and plated in a 96-well plate (15,000 cells in 100 ul media per well). The plate was incubated at 37° C. with 5% CO2 for 24 hours to allow cells to adhere. An 11-point 3-fold serial dilution of the compounds was made in DMSO then diluted in media in an intermediate plate. Compounds were transferred from the intermediate plate to the cell plate with the top dose at a final concentration of 10 uM in the well. Final DMSO concentration was kept at or below 0.25%. The cell plate was returned to the incubator at 37° C. with 5% CO2 for an additional 24 hours.
(§3) The K562 cell line was cultured in IMDM with 10% FBS. For K562, cells were diluted with full growth media and plated in either a 96-well plate (50,000 cells in 50 uL media per well) or a 384-well plate (8,000-40,000 cells in 45 uL media per well). An 11-point 3-fold serial dilution of the compounds were made in DMSO then diluted in media in an intermediate plate. Compound was transferred from the intermediate plate to the cell plate with the top dose at a final concentration of 10 uM in the well. Final DMSO concentration was kept at or below 0.25%. Final volume was 100 uL for 96-well plate and 50 uL for 384-well plate. The cell plate was then placed in an incubator at 37° C. with 5% CO2 for 24 hours.
(§4) The data analysis was performed by first determining the ΔCt vs the housekeeper gene. This ΔCt was then normalized against the DMSO control (ΔΔCt) and converted to RQ (relative quantification) using the 2^(−ΔΔCt) equation. The RQ were then converted to a percentage response by arbitrarily setting an assay window of 3.5 ΔCt for HTT-CJ and an assay window of 9 ΔCt for HTT-AJ. […] The percentage response was then fitted to the 4 parametric logistic equation to evaluate the concentration dependence of compound treatment. The increase in AJ mRNA is reported as AC50 (compound concentration having 50% response in AJ increase) while the decrease in CJ mRNA levels is reported as IC50 (compound concentration having 50% response in CJ decrease).
(§5) Additional studies were carried out for a larger panel of genes using the protocol provided above. The junction between flanking upstream and downstream exons was used to design canonical junction qPCR assays. At least one of the forward primer, reverse primer or the CY5-labeled 5′ nuclease probe (with 3′ quencher such as ZEN/Iowa Black FQ) was designed to overlap with the exon junction to capture the CJ mRNA transcript. BLAST was used to confirm the specificity of the probeset and parameters such as melting temperature, GC content, amplicon size, and primer dimer formation are considered during their design. Data for the decrease in CJ mRNA levels for three exemplary genes (HTT, SMN2, and Target C) analyzed in this panel are reported as IC50 (compound concentration having 50% response in CJ decrease).
On the technique in general: Real-time PCR tracks product formation cycle by cycle.

Experiment [1] deals with HTT mRNA, alternative junction (AJ). In words: Splicing RT-qPCR assay, HTT alternative junction (AJ) mRNA increase. The conditions noted are these: A673 or K562 cells, 24 hours compound treatment, 50% response in AJ increase. Here is the method: as §1
(§6) • Cells-to-CT 1-step kit: ThermoFisher A25602, Cells-to-CT lysis reagent: ThermoFisher 4391851C, TagMan™ Fast Virus 1-Step Master Mix: ThermoFisher 4444436 • GAPDH: VIC-PL, ThermoFisher 4326317E (Assay: Hs99999905 m1)—used for K562/suspension cell lines • GUSB: VIC-PL, ThermoFisher 4326320E (Assay: Hs99999908 m1)—used for K562/suspension cell lines • PPIA: VIC-PL, ThermoFisher 4326316E (Assay: Hs99999904 m1)—used for A673/adherent cell lines
as §2, §3
(§7) The cells were then gently washed with 50 uL-100 uL cold PBS before proceeding to addition of lysis buffer. 30 uL-50 uL of room temperature lysis buffer with DNAse I (and optionally RNAsin) was added to each well. Cells were shaken/mixed thoroughly at room temperature for 5-10 minutes for lysis to take place and then 3 uL-5 uL of room temperature stop solution was added and wells were shaken/mixed again. After 2-5 minutes, the cell lysate plate was transferred to ice for RT-qPCR reaction setup. The lysates could also be frozen at ˜80° C. for later use.
(§8) In some cases, a direct lysis buffer was used. An appropriate volume of 3×lysis buffer (10 mM Tris, 150 mM NaCl, 1.5%-2.5% Igepal and 0.1-1 U/uL RNAsin, pH 7.4) was directly added to either K562 or A673 cells in media and mixed by pipetting 3 times. The plates were then incubated at room temperature with shaking/rocking for 20-50 minutes to allow for lysis to take place. After this time, the cell lysate plate was transferred to ice to set up for the RT-qPCR reactions. The lysates could also be frozen at −80° C. for later use. […]

In a further experiment the test system is HTT CJ mRNA transcript. In words: Gene panel canonical junction qPCR assay, HTT. The settings on record: 50% response in CJ decrease, read-out: HTT IC50 (decrease in CJ mRNA levels). As for the experimental part:
as §1, §2, §3, §4, §5

Experiment [2] relates to Target C CJ mRNA transcript. The experiment in a line: Gene panel canonical junction qPCR assay, Target C. The conditions noted are these: 50% response in CJ decrease, read-out: Target C IC50 (decrease in CJ mRNA levels). As for the experimental part: as §1, §2, §3, §4, §5
Experiment [3] concerns HTT mRNA, canonical junction (CJ). The experiment in a line: Splicing RT-qPCR assay, HTT canonical junction (CJ) mRNA decrease. The conditions noted are these: A673 or K562 cells, 24 hours compound treatment, 50% response in CJ decrease. As for the experimental part: as §1, §6, §2, §3, §7, §8

For orientation: IC50 means the midpoint of a concentration-inhibition curve. As a reminder, the AC50 is the midpoint of the concentration-response curve, whichever way the signal moves. As to `CN1CCC(c2nc3c(=O)n(-c4ccc5nn(C)cc5c4)cnc3s2)CC1` [Compound 176, 6-(2-methyl-2H-indazol-5-yl)-2-(1-methylpiperidin-4-yl)thiazolo[5,4-d]pyrimidin-7(6H)-one], the half-inhibitory concentration (IC50) (with SMN2 CJ mRNA transcript; with HTT CJ mRNA transcript; in experiment [2]) was > 10 µM throughout. Besides, the AC50 in experiment [1] and in experiment [3] was > 10 µM each time.
As to `Cc1cc(-c2nc3c(=O)n(C4CCN(C)CC4)cnc3s2)cc2cn(C)nc12` [Compound 179, 2-(2,7-dimethyl-2H-indazol-5-yl)-6-(1-methylpiperidin-4-yl)thiazolo[5,4-d]pyrimidin-7(6H)-one], the results for the IC50 in the experiment with SMN2 CJ mRNA transcript and with HTT CJ mRNA transcript were 0.1 to 1 µM and > 10 µM, respectively. Besides, the AC50 in experiment [1] and in experiment [3] was > 10 µM in each case.
In the case of `CN1CCN(c2nc3c(=O)n(-c4ccc5nn(C)cc5c4)cnc3s2)CC1` [Compound 181, 6-(2-methyl-2H-indazol-5-yl)-2-(4-methylpiperazin-1-yl)thiazolo[5,4-d]pyrimidin-7(6H)-one], the IC50 in the experiment on SMN2 CJ mRNA transcript and with HTT CJ mRNA transcript was > 10 µM throughout. Also, the AC50 in experiment [1] and in experiment [3] was > 10 µM each time.
For the compound `Cn1cc2cc(-n3cnc4sc(N5CCN(Cc6ccc(F)cc6)CC5)nc4c3=O)ccc2n1` [Compound 185, 2-(4-(4-fluorobenzyl)piperazin-1-yl)-6-(2-methyl-2H-indazol-5-yl)thiazolo[5,4-d]pyrimidin-7(6H)-one], the IC50 with SMN2 CJ mRNA transcript and with HTT CJ mRNA transcript was > 10 µM in each case. In addition, the AC50 in experiment [1] and in experiment [3] was > 10 µM each time.
In the case of `Cc1cn2cc(-c3nc4c(=O)n(C5CCN(C)CC5)cnc4s3)cc(F)c2n1` [Compound 186, 2-(8-fluoro-2-methylimidazo[1,2-a]pyridin-6-yl)-6-(1-methylpiperidin-4-yl)thiazolo[5,4-d]pyrimidin-7(6H)-one], the IC50 in the experiment on SMN2 CJ mRNA transcript and with HTT CJ mRNA transcript was 1 to 10 µM each time. Moreover, the AC50 in experiment [1] and in experiment [3] was 1 to 10 µM in each case.
`Cc1cc(-c2nc3c(=O)n(C4CC(C)(C)N(C=O)C(C)(C)C4)cnc3s2)cc2cn(C)nc12` [Compound 187, 4-(2-(2,7-dimethyl-2H-indazol-5-yl)-7-oxothiazolo[5,4-d]pyrimidin-6(7H)-yl)-2,2,6,6-tetramethylpiperidine-1-carbaldehyde]: the IC50 was > 10 µM in the experiment with SMN2 CJ mRNA transcript and 1 to 10 µM in the experiment on HTT CJ mRNA transcript. Besides, the AC50 was > 10 µM in experiment [1] and 1 to 10 µM in experiment [3].
On to `CN1CC=C(c2nc3c(=O)n(-c4ccc5nn(C)cc5c4)cnc3s2)CC1` [Compound 188, 2-(1-methyl-1,2,3,6-tetrahydropyridin-4-yl)-6-(2-methyl-2H-indazol-5-yl)thiazolo[5,4-d]pyrimidin-7(6H)-one], for which the values for the IC50 (in the experiment with SMN2 CJ mRNA transcript; in the experiment with HTT CJ mRNA transcript; in experiment [2]) were > 10 µM, > 10 µM and 1 to 10 µM, respectively. Moreover, the AC50 in experiment [1] and in experiment [3] was > 10 µM in each case.
As for `CN1CCC(Nc2nc3c(=O)n(-c4ccc5nn(C)cc5c4)cnc3s2)CC1` [Compound 189, 6-(2-methyl-2H-indazol-5-yl)-2-((1-methylpiperidin-4-yl)amino)thiazolo[5,4-d]pyrimidin-7(6H)-one], the IC50 (in the experiment on SMN2 CJ mRNA transcript; with HTT CJ mRNA transcript; in experiment [2]) was > 10 µM in each case. For the same compound, the concentration at half-maximal activity (AC50) in experiment [1] and in experiment [3] was > 10 µM in each case.
Regarding `CN1CCC(N(C)c2nc3c(=O)n(-c4ccc5nn(C)cc5c4)cnc3s2)CC1` [Compound 190, 2-(methyl(1-methylpiperidin-4-yl)amino)-6-(2-methyl-2H-indazol-5-yl)thiazolo[5,4-d]pyrimidin-7(6H)-one], the IC50 (in the experiment on SMN2 CJ mRNA transcript; in the experiment on HTT CJ mRNA transcript; in experiment [2]) was > 10 µM in each case. In addition, the AC50 in experiment [1] and in experiment [3] was > 10 µM in each case.
Take `Cn1cc2cc(-n3cnc4sc(N5CCNCC5)nc4c3=O)ccc2n1` [Compound 219, 6-(2-methyl-2H-indazol-5-yl)-2-(piperazin-1-yl)thiazolo[5,4-d]pyrimidin-7(6H)-one]: the IC50 (in the experiment on SMN2 CJ mRNA transcript; with HTT CJ mRNA transcript; in experiment [2]) was > 10 µM in each case. For the same compound, the AC50 in experiment [1] and in experiment [3] was > 10 µM throughout.
Take `Cc1cn2cc(-n3cnc4sc(N5CCNCC5)nc4c3=O)cc(F)c2n1` [Compound 220, 6-(8-fluoro-2-methylimidazo[1,2-a]pyridin-6-yl)-2-(piperazin-1-yl)thiazolo[5,4-d]pyrimidin-7(6H)-one]: the IC50 in the experiment with SMN2 CJ mRNA transcript is > 10 µM; in the experiment on HTT CJ mRNA transcript, > 10 µM; in experiment [2], 1 to 10 µM. Also, the AC50 in experiment [1] and in experiment [3] was > 10 µM each time.
Turning to `Cc1cn2cc(-n3cnc4sc(N5CCN(C)CC5)nc4c3=O)cc(F)c2n1` [Compound 221, 6-(8-fluoro-2-methylimidazo[1,2-a]pyridin-6-yl)-2-(4-methylpiperazin-1-yl)thiazolo[5,4-d]pyrimidin-7(6H)-one], the IC50 (in the experiment on SMN2 CJ mRNA transcript; in the experiment on HTT CJ mRNA transcript; in experiment [2]) was > 10 µM in each case. Further, the AC50 in experiment [1] and in experiment [3] was > 10 µM throughout.
With `Cc1cn2cc(-n3cnc4sc(N5CCNCC5)nc4c3=O)cc(C(F)(F)F)c2n1` [Compound 223, 6-(2-methyl-8-(trifluoromethyl)imidazo[1,2-a]pyridin-6-yl)-2-(piperazin-1-yl)thiazolo[5,4-d]pyrimidin-7(6H)-one], the IC50 (with SMN2 CJ mRNA transcript; in the experiment on HTT CJ mRNA transcript; in experiment [2]) was > 10 µM in each case. For the same compound, the concentration at half-maximal activity (AC50) in experiment [1] and in experiment [3] was > 10 µM in each case.
Regarding `Cc1cn2cc(-n3cnc4sc(N5CCN(C)CC5)nc4c3=O)cc(C(F)(F)F)c2n1` [Compound 224, 6-(2-methyl-8-(trifluoromethyl)imidazo[1,2-a]pyridin-6-yl)-2-(4-methylpiperazin-1-yl)thiazolo[5,4-d]pyrimidin-7(6H)-one], the AC50 in experiment [1] and in experiment [3] was > 10 µM each time.
